Reference: publication PMC4375101 (Chemistry & biology, 2009)

Biological target: yeast Hsc70 (Ssa1p) (Saccharomyces cerevisiae, UniProt P10591)
Experiment: single-turnover […]ATP ATPase assay with J-domain co-chaperone
Format: biochemical

Sequence of yeast Hsc70 (Ssa1p) (P10591 2-642): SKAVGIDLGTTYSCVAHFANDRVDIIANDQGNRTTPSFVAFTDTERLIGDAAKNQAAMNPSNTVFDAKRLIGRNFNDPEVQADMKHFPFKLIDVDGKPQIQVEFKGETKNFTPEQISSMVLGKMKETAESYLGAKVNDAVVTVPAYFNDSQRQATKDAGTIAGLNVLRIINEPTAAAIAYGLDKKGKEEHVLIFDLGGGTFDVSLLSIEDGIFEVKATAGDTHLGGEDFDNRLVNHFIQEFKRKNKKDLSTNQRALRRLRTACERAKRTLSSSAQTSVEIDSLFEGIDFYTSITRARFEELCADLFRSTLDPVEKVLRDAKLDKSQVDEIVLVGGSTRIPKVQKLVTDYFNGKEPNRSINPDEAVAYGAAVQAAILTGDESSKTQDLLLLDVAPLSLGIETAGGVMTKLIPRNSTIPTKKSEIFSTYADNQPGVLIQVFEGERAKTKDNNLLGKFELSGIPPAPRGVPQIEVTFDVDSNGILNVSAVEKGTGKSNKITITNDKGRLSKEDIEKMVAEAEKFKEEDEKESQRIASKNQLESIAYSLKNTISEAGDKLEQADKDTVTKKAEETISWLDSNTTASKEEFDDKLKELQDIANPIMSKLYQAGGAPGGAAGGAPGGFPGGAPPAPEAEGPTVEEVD
Sequence of yeast Hsc70 (Ssa1p) (P03070 whole entry, further chain): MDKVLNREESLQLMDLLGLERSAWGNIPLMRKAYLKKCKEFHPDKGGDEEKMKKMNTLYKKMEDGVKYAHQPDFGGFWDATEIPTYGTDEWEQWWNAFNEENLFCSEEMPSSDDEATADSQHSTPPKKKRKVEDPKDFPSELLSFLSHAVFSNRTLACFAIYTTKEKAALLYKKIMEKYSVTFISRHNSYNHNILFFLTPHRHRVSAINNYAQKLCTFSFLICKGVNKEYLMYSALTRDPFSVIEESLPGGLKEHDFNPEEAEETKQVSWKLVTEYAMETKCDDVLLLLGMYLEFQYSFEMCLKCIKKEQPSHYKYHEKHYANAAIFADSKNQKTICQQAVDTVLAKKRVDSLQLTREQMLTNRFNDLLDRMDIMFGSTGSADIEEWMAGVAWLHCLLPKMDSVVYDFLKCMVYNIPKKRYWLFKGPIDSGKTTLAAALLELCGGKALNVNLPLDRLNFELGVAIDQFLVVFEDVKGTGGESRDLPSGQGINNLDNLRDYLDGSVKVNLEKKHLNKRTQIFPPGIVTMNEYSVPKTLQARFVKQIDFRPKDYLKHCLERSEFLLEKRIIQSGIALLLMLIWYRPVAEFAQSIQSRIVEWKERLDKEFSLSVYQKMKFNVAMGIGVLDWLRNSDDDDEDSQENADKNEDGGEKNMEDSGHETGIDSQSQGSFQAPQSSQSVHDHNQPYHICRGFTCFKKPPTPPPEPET

CCCCCCCCCCCCC/C=C/[C@@H](O)[C@H](COC1O[C@H](CO)[C@H](O)[C@H](OS(=O)(=O)O)[C@H]1O)NC(=O)CC12CC3CC(CC(C3)C1)C2 (stereo partly shown) [adaSGC]
Ki: ~10 µM
